Reference: patent US20130123460A1, “PEPTIDE FOR IMPROVING BIOSTABILITY OF BIOACTIVE SUBSTANCE, AND BIOACTIVE SUBSTANCE HAVING IMPROVED BIOSTABILITY” (priority 2010, published 2013)
Where two headings read alike, the source gives them in different places. Where no end group is shown, it is not given here.

Tests used:
[1] = Plasma stability of GLP-1 peptide complex (remaining rate in rat plasma, HPLC/MS); assay type: in vitro ADME, SD rats; settings: for remaining at 8 h, 0.5 μmol/L / remaining at 48 h, 0.5 μmol/L: SD
Excerpt: SD rats were anesthetized with diethyl ether, whole blood was collected and a plasma fraction was separated therefrom.

[2] = target: T1, endogenous GLP-1 receptor (Mus musculus, UniProt O35659); assay: Insulin secretion capacity of GLP-1 peptide complex in MIN 6 cells; assay type: cell-based; settings: for Insulin secretion capacity (% of control): MIN 6 cells, 1000 pM, 15 mM glucose, control = native GLP-1 at 1000 pM;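 as to all read-outs here: insulin released into the supernatant of MIN 6 cultures quantified by ELISA, absorbance read at 450 nm with 620 nm reference after substrate addition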
T1 construct: expressing an endogenous GLP-1 receptor; endogenous in cells; host or cells: MIN 6 mouse insulinoma cells (obtained from a person)
T1 sequence (O35659 22-463): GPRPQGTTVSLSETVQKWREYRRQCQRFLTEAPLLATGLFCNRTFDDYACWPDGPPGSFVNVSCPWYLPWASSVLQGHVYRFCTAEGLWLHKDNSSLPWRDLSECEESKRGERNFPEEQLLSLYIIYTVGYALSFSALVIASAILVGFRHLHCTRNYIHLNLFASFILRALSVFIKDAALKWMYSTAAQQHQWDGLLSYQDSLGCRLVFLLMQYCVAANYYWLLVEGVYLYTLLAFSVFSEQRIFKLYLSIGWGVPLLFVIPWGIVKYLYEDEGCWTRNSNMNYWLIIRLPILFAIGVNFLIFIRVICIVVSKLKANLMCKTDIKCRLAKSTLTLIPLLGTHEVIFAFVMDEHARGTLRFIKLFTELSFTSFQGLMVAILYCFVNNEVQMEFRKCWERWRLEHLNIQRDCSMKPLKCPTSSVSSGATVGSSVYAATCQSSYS
Description: MIN 6 was seeded on a multi-plate, which was cultivated at 37° C. for 48 hours. After that, the culture was washed twice with a KRH buffer solution including 2 mM glucose solution (including NaCl 119 mM, KCl 4.74 mM, CaCl2 2.54 mM, MgCl2 1.19 mM, KH2PO4 1.19 mM, 10 mM HEPES buffer solution pH7.3, and 0.1% BSA), and then it was incubated at 37° C. for one hour. […] A supernatant thereof was recovered, and an amount of insulin secreted was measured. The measurement of the insulin was performed in an enzyme-linked immunosorbent assay (ELISA), and an absorbance was measured at 450 nm (a sub-wavelength: 620 nm) after the addition of a substrate.
EC50 values thereof were calculated in the same manner as in Part 2, and the influence on the bioactivity caused by the addition of the partial peptide of the GA module were inspected in detail.
The analysis was performed using the following calculation formula.

[3] = rat plasma, 0.5 μmol/L, 37° C., 8 hours, relative to 0 hour = 100%, read-out: Remaining rate in plasma after 8 hours (%)
[4] = rat plasma, 0.5 μmol/L, 37° C., 48 hours, relative to 0 hour = 100%, read-out: Remaining rate in plasma after 48 hours (%)

Molecule | remaining at 8 h, 0.5 μmol/L ([1]; rat, plasma) | remaining at 48 h, 0.5 μmol/L ([1]; rat, plasma) | Insulin secretion capacity (% of control) [2] | other results
CC[C@H](C)[C@H](NC(=O)[C@H](Cc1ccccc1)NC(=O)[C@H](CCC(=O)O)NC(=O)[C@H](CCCCN)NC(=O)[C@H](C)NC(=O)[C@H](C)NC(=O)[C@H](CCC(N)=O)NC(=O)CNC(=O)[C@H](CCC(=O)O)NC(=O)[C@H](CC(C)C)NC(=O)[C@H](Cc1ccc(O)cc1)NC(=O)[C@H](CO)NC(=O)[C@H](CO)NC(=O)[C@@H](NC(=O)[C@H](CC(=O)O)NC(=O)[C@H](CO)NC(=O)[C@@H](NC(=O)[C@H](Cc1ccccc1)NC(=O)[C@@H](NC(=O)CNC(=O)[C@H](CCC(=O)O)NC(=O)[C@H](CO)NC(=O)[C@@H](N)Cc1c[nH]cn1)[C@@H](C)O)[C@@H](C)O)C(C)C)C(=O)N[C@@H](C)C(=O)N[C@@H](Cc1c[nH]c2ccccc12)C(=O)N[C@@H](CC(C)C)C(=O)N[C@H](C(=O)N[C@@H](CCCCN)C(=O)NCC(=O)N[C@@H](CC(=O)O)C(=O)N[C@@H](CCC(=O)O)C(=O)N[C@H](C(=O)N[C@@H](CC(C)C)C(=O)N[C@@H](C)C(=O)N[C@@H](C)C(N)=O)[C@@H](C)CC)C(C)C [Comparative Example 9, [Ser8]-GLP-1(7-35)-GAm(39-44)-NH2, reference compound] | 63% | 0% | – | –
CC[C@H](C)[C@H](NC(=O)[C@H](CCC(=O)O)NC(=O)[C@H](CC(=O)O)NC(=O)[C@@H](NC(=O)CNC(=O)[C@H](CCCCN)NC(=O)[C@@H](NC(=O)[C@H](CC(C)C)NC(=O)[C@H](Cc1c[nH]c2ccccc12)NC(=O)[C@H](C)NC(=O)[C@@H](NC(=O)[C@H](Cc1ccccc1)NC(=O)[C@H](CCC(=O)O)NC(=O)[C@H](CCCCN)NC(=O)[C@H](C)NC(=O)[C@H](C)NC(=O)[C@H](CCC(N)=O)NC(=O)CNC(=O)[C@H](CCC(=O)O)NC(=O)[C@H](CC(C)C)NC(=O)[C@H](Cc1ccc(O)cc1)NC(=O)[C@H](CO)NC(=O)[C@H](CO)NC(=O)[C@@H](NC(=O)[C@H](CC(=O)O)NC(=O)[C@H](CO)NC(=O)[C@@H](NC(=O)[C@H](Cc1ccccc1)NC(=O)[C@@H](NC(=O)CNC(=O)[C@H](CCC(=O)O)NC(=O)[C@H](C)NC(=O)[C@@H](N)Cc1c[nH]cn1)[C@@H](C)O)[C@@H](C)O)C(C)C)[C@@H](C)CC)C(C)C)[C@@H](C)CC)C(N)=O [Comparative Example 10, GLP-1(7-35)-GAm(38-41)-NH2, reference compound] | 35% | 0% | – | –
CC[C@H](C)[C@H](NC(=O)CNC(=O)[C@H](CCCCN)NC(=O)[C@@H](NC(=O)[C@H](CC(C)C)NC(=O)[C@H](Cc1c[nH]c2ccccc12)NC(=O)[C@H](C)NC(=O)[C@@H](NC(=O)[C@H](Cc1ccccc1)NC(=O)[C@H](CCC(=O)O)NC(=O)[C@H](CCCCN)NC(=O)[C@H](C)NC(=O)[C@H](C)NC(=O)[C@H](CCC(N)=O)NC(=O)CNC(=O)[C@H](CCC(=O)O)NC(=O)[C@H](CC(C)C)NC(=O)[C@H](Cc1ccc(O)cc1)NC(=O)[C@H](CO)NC(=O)[C@H](CO)NC(=O)[C@@H](NC(=O)[C@H](CC(=O)O)NC(=O)[C@H](CO)NC(=O)[C@@H](NC(=O)[C@H](Cc1ccccc1)NC(=O)[C@@H](NC(=O)CNC(=O)[C@H](CCC(=O)O)NC(=O)[C@H](C)NC(=O)[C@@H](N)Cc1c[nH]cn1)[C@@H](C)O)[C@@H](C)O)C(C)C)[C@@H](C)CC)C(C)C)C(=O)N[C@@H](CC(=O)O)C(=O)N[C@@H](CCC(=O)O)C(N)=O [Comparative Example 11, GLP-1(7-35)-GAm(38-40)-NH2, reference compound] | 0% | 0% | – | –
CC[C@H](C)[C@H](NC(=O)[C@H](Cc1ccccc1)NC(=O)[C@H](CCC(=O)O)NC(=O)[C@H](CCCCN)NC(=O)[C@H](C)NC(=O)[C@H](C)NC(=O)[C@H](CCC(N)=O)NC(=O)CNC(=O)[C@H](CCC(=O)O)NC(=O)[C@H](CC(C)C)NC(=O)[C@H](Cc1ccc(O)cc1)NC(=O)[C@H](CO)NC(=O)[C@H](CO)NC(=O)[C@@H](NC(=O)[C@H](CC(=O)O)NC(=O)[C@H](CO)NC(=O)[C@@H](NC(=O)[C@H](Cc1ccccc1)NC(=O)[C@@H](NC(=O)CNC(=O)[C@H](CCC(=O)O)NC(=O)CNC(=O)[C@@H](N)Cc1c[nH]cn1)[C@@H](C)O)[C@@H](C)O)C(C)C)C(=O)N[C@@H](C)C(=O)N[C@@H](Cc1c[nH]c2ccccc12)C(=O)N[C@@H](CC(C)C)C(=O)N[C@H](C(=O)N[C@@H](CCCCN)C(=O)NCC(=O)N[C@@H](CCCNC(=N)N)C(=O)N1CCC[C@H]1C(=O)N[C@@H](CO)C(=O)N[C@@H](CO)C(N)=O)C(C)C [Comparative Example 12, [Gly8]-GLP-1(7-35)-RPSS-NH2, reference compound] | – | – | – | remaining at 8 h, 0.5 μmol/L [1, 3]: 34%; remaining at 48 h, 0.5 μmol/L [1, 4]: 0%; Remaining rate in plasma after 48 hours (%) ([1]; rat plasma, 0.5 μmol/L, 37° C., 48 hours, relative to 0 hour = 100%): 0%
CC[C@H](C)[C@H](NC(=O)[C@H](Cc1ccccc1)NC(=O)[C@H](CCC(=O)O)NC(=O)[C@H](CCCCN)NC(=O)[C@H](C)NC(=O)[C@H](C)NC(=O)[C@H](CCC(N)=O)NC(=O)CNC(=O)[C@H](CCC(=O)O)NC(=O)[C@H](CC(C)C)NC(=O)[C@H](Cc1ccc(O)cc1)NC(=O)[C@H](CO)NC(=O)[C@H](CO)NC(=O)[C@@H](NC(=O)[C@H](CC(=O)O)NC(=O)[C@H](CO)NC(=O)[C@@H](NC(=O)[C@H](Cc1ccccc1)NC(=O)[C@@H](NC(=O)CNC(=O)[C@H](CCC(=O)O)NC(=O)[C@H](CO)NC(=O)[C@@H](N)Cc1c[nH]cn1)[C@@H](C)O)[C@@H](C)O)C(C)C)C(=O)N[C@@H](C)C(=O)N[C@@H](Cc1c[nH]c2ccccc12)C(=O)N[C@@H](CC(C)C)C(=O)N[C@H](C(=O)N[C@@H](CCCCN)C(=O)NCC(=O)N[C@@H](CC(C)C)C(=O)N[C@H](C(=O)N[C@@H](CC(=O)O)C(=O)N[C@@H](CCC(=O)O)C(=O)N[C@H](C(=O)N[C@@H](CC(C)C)C(=O)N[C@@H](C)C(=O)N[C@@H](C)C(N)=O)[C@@H](C)CC)[C@@H](C)CC)C(C)C [Example 3, [Ser8]-GLP-1(7-35)-GAm(37-44)-NH2] | – | – | 82% | remaining at 8 h, 0.5 μmol/L [1, 3]: 113%; remaining at 48 h, 0.5 μmol/L [1, 4]: 95%
CC[C@H](C)[C@H](NC(=O)CNC(=O)[C@H](CCCCN)NC(=O)[C@@H](NC(=O)[C@H](CC(C)C)NC(=O)[C@H](Cc1c[nH]c2ccccc12)NC(=O)[C@H](C)NC(=O)[C@@H](NC(=O)[C@H](Cc1ccccc1)NC(=O)[C@H](CCC(=O)O)NC(=O)[C@H](CCCCN)NC(=O)[C@H](C)NC(=O)[C@H](C)NC(=O)[C@H](CCC(N)=O)NC(=O)CNC(=O)[C@H](CCC(=O)O)NC(=O)[C@H](CC(C)C)NC(=O)[C@H](Cc1ccc(O)cc1)NC(=O)[C@H](CO)NC(=O)[C@H](CO)NC(=O)[C@@H](NC(=O)[C@H](CC(=O)O)NC(=O)[C@H](CO)NC(=O)[C@@H](NC(=O)[C@H](Cc1ccccc1)NC(=O)[C@@H](NC(=O)CNC(=O)[C@H](CCC(=O)O)NC(=O)[C@H](C)NC(=O)[C@@H](N)Cc1c[nH]cn1)[C@@H](C)O)[C@@H](C)O)C(C)C)[C@@H](C)CC)C(C)C)C(=O)N[C@@H](CC(=O)O)C(=O)N[C@@H](CCC(=O)O)C(=O)N[C@H](C(=O)N[C@@H](CC(C)C)C(N)=O)[C@@H](C)CC [Example 5, GLP-1(7-35)-GAm(38-42)-NH2] | – | – | 112% | remaining at 8 h, 0.5 μmol/L [1, 3]: 73%; remaining at 48 h, 0.5 μmol/L [1, 4]: 83%
GLP-1(7-36)-NH2 [Comparative Example 1, reference compound] | – | – | 100% | –
HSEGTFTSDVSSYLEEEAAKEFIAWLVKGGPSSGAPPPS-NH2 [Comparative Example 13, reference compound] | 57% | 12% | – | –
HSEGTFTSDVSSYLEGQAAKEFIAWLVKGAKTVEGVKAL-NH2 [Comparative Example 8, [Ser8]-GLP-1(7-35)-GAm(28-37)-NH2, reference compound] | 27% | 0% | – | –
HSEGTFTSDVSSYLEGQAAKEFIAWLVKGAKTVEGVKALIDE-NH2 [Comparative Example 7, [Ser8]-GLP-1(7-35)-GAm(28-40)-NH2, reference compound] | 81% | 4% | – | –
HSEGTFTSDVSSYLEGQAAKEFIAWLVKGKNLINNAKTVEGVKALIDEILAALP-NH2 [Example 17, [Ser8]-GLP-1(7-35)-GAm(22-46)-NH2] | 80% | 93% | – | –
[Ser8]-GLP-1(7-35)-GAm(28-44)-NH2 [Example 14] | – | – | 105% | Insulin secretion capacity (activity) compared with native GLP-1, in words ([2]; MIN 6 cells, 30, 100, 300 or 1000 pM (FIG. 2, FIG. 3)): almost the same activity as that of the native GLP-1
[Ser8]-GLP-1(7-35)-GAm(32-44)-NH2 [Example 10] | – | – | 109% | –
[Ser8]-GLP-1(7-35)-GAm(38-42)-NH2 [Example 1] | – | – | 125% | –
[Ser8]-GLP-1(7-35)-GAm(38-44)-NH2 [Example 2] | – | – | 120% | –
